From patent US20250382344A1, “Soluble GLP1/GIP/NPY2 Receptor Triple Agonists” (Boehringer Ingelheim International GmH, priority 2024, published 2025)
Like-named read-outs stand apart in the source and are kept apart here. One block for each molecule: values may come before it.

Assays:
[1] = biological target: T1, hNPY2R (Homo sapiens, UniProt P49146); assay: hNPY2R CreLuc assay in 0.5% and 100% plasma (HEK-293 CRE-luciferase reporter cells); type: cell-based; conditions: HEK-293 reporter cells
T1 construct: expressed in transfected cells; host or cells: HEK-293 CRE-luciferase reporter cells
T1 sequence (P49146 1-381): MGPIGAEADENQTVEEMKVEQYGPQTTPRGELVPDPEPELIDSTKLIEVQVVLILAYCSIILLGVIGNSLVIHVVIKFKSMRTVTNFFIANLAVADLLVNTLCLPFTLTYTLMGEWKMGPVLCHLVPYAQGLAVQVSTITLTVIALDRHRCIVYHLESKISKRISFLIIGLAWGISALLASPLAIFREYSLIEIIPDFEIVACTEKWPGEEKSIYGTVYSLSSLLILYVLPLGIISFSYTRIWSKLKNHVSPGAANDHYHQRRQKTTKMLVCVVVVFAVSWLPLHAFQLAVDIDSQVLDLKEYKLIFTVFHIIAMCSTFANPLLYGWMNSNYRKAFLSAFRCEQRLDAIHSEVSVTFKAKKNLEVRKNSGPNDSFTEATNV
From the text: CHO and HEK-293 recombinant cell lines express a luciferase reporter gene under control of the CAMP responsive element (CRE). As a second recombinant protein the GLP-1 and NPY2 receptors were expressed in the reporter gene HEK cells, and the GIP receptor was expressed in the reporter gene CHO cells, respectively. Stimulation of these recombinant cells with an agonist leads to an increase of intracellular CAMP levels. In the presence of CAMP, the transcription factor CRE binding protein (CREB) binds to the CRE and to the CREB binding protein (CBP), which leads to transcription of the luciferase reporter gene. Peptides upon serial-dilution in 100% DMSO were transferred into 384-well assay plates with 5 μl pre-dispensed assay buffer (1×HBSS, 20 mM HEPES, pH7.4 supplemented with 0.5% human plasma) using acoustic dispensing on a Labcyte ECHO. Cryo-preserved transgenic reporter gene cells were thawed in assay buffer. 20 μl (10.000 cells/well) were added to the plate with the peptides and incubated for 4 hours at 37° C. in a humidified incubator. Following incubation, assay plates are equilibrated to room temperature, followed by addition of 25 μl of Bright-Glo™ Luciferase reagent, incubation at room temperature for 10 minutes and analysis of luminescence (Envision Reader). […] EC50 values were calculated by non-linear regression using sigmoid concentration-response with variable slope.
The same assays were run in the presence of 100% plasma with no additional buffer constituents.

[2] = Solubility in 0.1 M phosphate buffer at pH 7; type: physicochemical; conditions: 0.1 M phosphate buffer at pH 7, 10 mg/mL final peptide concentration, shaking 2 hours at room temperature, peptides as TFA-salts; measured sample pH 6.5-7.0
[3] = biological target: T2, hGIPR (Homo sapiens, UniProt P48546); assay: hGIPR CreLuc assay in 0.5% and 100% plasma (CHO CRE-luciferase reporter cells); type: cell-based; conditions: 0.5% human plasma, read-out: hGIPR 0.5% hP
T2 construct: expressed in transfected cells; host or cells: CHO CRE-luciferase reporter cells
T2 sequence (P48546 22-466): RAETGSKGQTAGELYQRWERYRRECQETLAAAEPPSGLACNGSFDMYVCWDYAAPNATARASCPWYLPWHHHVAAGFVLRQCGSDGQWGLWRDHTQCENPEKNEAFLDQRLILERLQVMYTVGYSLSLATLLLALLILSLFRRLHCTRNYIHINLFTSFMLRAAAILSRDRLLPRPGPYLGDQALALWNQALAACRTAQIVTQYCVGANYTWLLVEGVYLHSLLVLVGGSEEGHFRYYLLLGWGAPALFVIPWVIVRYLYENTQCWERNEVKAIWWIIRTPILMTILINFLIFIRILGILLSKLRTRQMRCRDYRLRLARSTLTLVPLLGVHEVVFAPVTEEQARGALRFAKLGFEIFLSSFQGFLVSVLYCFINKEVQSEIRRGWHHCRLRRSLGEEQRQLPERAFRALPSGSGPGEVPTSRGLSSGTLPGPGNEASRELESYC

[4] = biological target: T3, human neuropeptide Y2 receptor (human, UniProt P49146 1-381); assay: cell-based or functional assay
T3 sequence (looked up): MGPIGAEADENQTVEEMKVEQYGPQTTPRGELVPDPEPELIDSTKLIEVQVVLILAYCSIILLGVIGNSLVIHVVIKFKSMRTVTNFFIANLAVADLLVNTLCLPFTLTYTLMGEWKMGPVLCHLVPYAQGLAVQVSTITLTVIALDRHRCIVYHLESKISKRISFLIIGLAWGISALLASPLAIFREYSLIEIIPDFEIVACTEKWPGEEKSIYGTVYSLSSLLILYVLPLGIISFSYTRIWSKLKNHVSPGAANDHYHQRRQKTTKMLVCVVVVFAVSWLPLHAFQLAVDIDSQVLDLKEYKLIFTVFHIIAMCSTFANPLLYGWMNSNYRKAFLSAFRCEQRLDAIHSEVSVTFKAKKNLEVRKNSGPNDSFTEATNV

[5] = biological target: T4, human GIP receptor (human, UniProt P48546 22-466); assay: cell-based or functional assay
T4 sequence (looked up): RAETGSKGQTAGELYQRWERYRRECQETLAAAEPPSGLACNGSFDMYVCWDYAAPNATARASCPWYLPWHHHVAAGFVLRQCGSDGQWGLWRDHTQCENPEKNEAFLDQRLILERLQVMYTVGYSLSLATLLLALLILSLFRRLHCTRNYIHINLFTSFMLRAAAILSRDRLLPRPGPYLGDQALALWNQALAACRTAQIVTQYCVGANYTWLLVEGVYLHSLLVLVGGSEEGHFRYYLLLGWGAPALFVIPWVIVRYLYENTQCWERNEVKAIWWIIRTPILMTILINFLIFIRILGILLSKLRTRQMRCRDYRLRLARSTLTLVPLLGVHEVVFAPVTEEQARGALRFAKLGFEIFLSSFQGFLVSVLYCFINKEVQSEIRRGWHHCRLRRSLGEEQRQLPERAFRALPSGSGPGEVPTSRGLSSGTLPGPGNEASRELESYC

[6] = biological target: human GLP-1 receptor (human, UniProt P43220 24-463); assay: cell-based or functional assay

Molecule: CC[C@H](C)[C@H](NC(=O)[C@H](CO)NC(=O)[C@H](Cc1ccc(O)cc1)NC(=O)[C@H](CC(=O)O)NC(=O)[C@H](CO)NC(=O)[C@@H](NC(=O)[C@H](Cc1ccccc1)NC(=O)[C@@H](NC(=O)CNC(=O)[C@H](CCC(=O)O)NC(=O)C(C)(C)NC(=O)[C@@H](N)Cc1ccc(O)cc1)[C@@H](C)O)[C@@H](C)O)C(=O)NC(C)(C)C(=O)N[C@@H](CC(C)C)C(=O)N[C@@H](CCC(=O)O)C(=O)N[C@@H](CCCCN)C(=O)N[C@@H](CCC(N)=O)C(=O)N[C@@H](C)C(=O)N[C@@H](CCC(N)=O)C(=O)NC(C)(C)C(=O)N[C@@H](C)C(=O)N[C@@H](Cc1ccccc1)C(=O)N[C@H](C(=O)N[C@@H](CCCNC(=N)N)C(=O)N[C@@H](Cc1c[nH]cn1)C(=O)N[C@@H](CC(C)C)C(=O)N[C@@H](Cc1ccc(O)cc1)C(=O)N[C@@H](CC(N)=O)C(=O)N[C@@H](CCCCNC(=O)[C@@H](N)CCCCNC(=O)CC[C@H](NC(=O)CC[C@H](NC(=O)CC[C@H](NC(=O)CC[C@H](NC(=O)CC[C@H](NC(=O)CC[C@H](NC(=O)CCCCCCCCCCCCCCCCC(=O)O)C(=O)O)C(=O)O)C(=O)O)C(=O)O)C(=O)O)C(=O)O)C(=O)NC(C)(C)C(=O)N[C@H](C(=O)N[C@@H](CCCNC(=N)N)C(=O)N[C@@H](CCC(N)=O)C(=O)N[C@@H](CCCNC(=N)N)C(=O)N[C@@H](Cc1ccc(O)cc1)C(N)=O)[C@@H](C)O)C(C)C [Compound 58, Y-Aib-E-G-T-F-T-S-D-Y-S-I-Aib-L-E-K-Q-A-Q-Aib-A-F-V-R-H-L-Y-N-K(1,3)-Aib-T-R-Q-R-Y-NH2.C18DA-gGlu-gGlu-gGlu-gGlu-gGlu-gGlu-eLys(1,2)]
EC50 ([1]; hNPY2R 100% hP (nM), 100% human plasma): 40 nM
solubility at 2 h [2]: 3300 µg/mL

EC50 [3]: 0.6 nM
EC50 ([1]; 100% human plasma, read-out: hNPY2R 100% hP): 131 nM
solubility at 2 h [2]: 4300 µg/mL
Molecule: CC[C@H](C)[C@H](NC(=O)[C@H](CC(C)C)NC(=O)[C@H](Cc1c[nH]cn1)NC(=O)[C@H](CCCNC(=N)N)NC(=O)[C@@H](NC(=O)[C@H](Cc1ccccc1)NC(=O)[C@H](C)NC(=O)C(C)(C)NC(=O)[C@H](CCC(N)=O)NC(=O)[C@H](C)NC(=O)[C@H](CCC(N)=O)NC(=O)[C@H](CCCCN)NC(=O)[C@H](CCC(=O)O)NC(=O)[C@H](CC(C)C)NC(=O)C(C)(C)NC(=O)[C@@H](NC(=O)[C@H](CO)NC(=O)[C@H](Cc1ccc(O)cc1)NC(=O)[C@H](CC(=O)O)NC(=O)[C@H](CO)NC(=O)[C@@H](NC(=O)[C@H](Cc1ccccc1)NC(=O)[C@@H](NC(=O)CNC(=O)[C@H](CCC(=O)O)NC(=O)C(C)(C)NC(=O)[C@@H](N)Cc1ccc(O)cc1)[C@@H](C)O)[C@@H](C)O)[C@@H](C)CC)C(C)C)C(=O)N[C@@H](CC(N)=O)C(=O)N[C@@H](CCCCNC(=O)CC[C@H](NC(=O)CC[C@H](NC(=O)CC[C@H](NC(=O)CC[C@H](NC(=O)CC[C@H](NC(=O)CC[C@H](NC(=O)[C@H]1CC[C@H](CNC(=O)CCCCCCCCCCCCCCCCC(=O)O)CC1)C(=O)O)C(=O)O)C(=O)O)C(=O)O)C(=O)O)C(=O)O)C(=O)NC(C)(C)C(=O)N[C@H](C(=O)N[C@@H](CCCNC(=N)N)C(=O)N[C@@H](CCC(N)=O)C(=O)N[C@@H](CCCNC(=N)N)C(=O)N[C@@H](Cc1ccc(O)cc1)C(N)=O)[C@@H](C)O [Compound 31, Y-Aib-E-G-T-F-T-S-D-Y-S-I-Aib-L-E-K-Q-A-Q-Aib-A-F-V-R-H-L-I-N-K(1,3)-Aib-T-R-Q-R-Y-NH2.C18DA-TRX-gGlu-gGlu-gGlu-gGlu-gGlu-gGlu(1,2)]

EC50 [3]: 0.4 nM
EC50 ([1]; 0.5% human plasma, read-out: hNPY2R 0.5% hP): 9.9 nM
Molecule: CC[C@H](C)[C@H](NC(=O)[C@H](CC(C)C)NC(=O)[C@H](Cc1c[nH]cn1)NC(=O)[C@H](CCCNC(=N)N)NC(=O)[C@@H](NC(=O)[C@H](Cc1ccccc1)NC(=O)[C@H](C)NC(=O)C(C)(C)NC(=O)[C@H](CCC(N)=O)NC(=O)[C@H](C)NC(=O)[C@H](CCC(N)=O)NC(=O)[C@H](CCCNC(=N)N)NC(=O)[C@H](CCC(=O)O)NC(=O)[C@H](CC(C)C)NC(=O)C(C)(C)NC(=O)[C@@H](NC(=O)[C@H](CO)NC(=O)[C@H](Cc1ccc(O)cc1)NC(=O)[C@H](CC(=O)O)NC(=O)[C@H](CO)NC(=O)[C@@H](NC(=O)[C@H](Cc1ccccc1)NC(=O)[C@@H](NC(=O)CNC(=O)[C@H](CCC(=O)O)NC(=O)C(C)(C)NC(=O)[C@@H](N)Cc1ccc(O)cc1)[C@@H](C)O)[C@@H](C)O)[C@@H](C)CC)C(C)C)C(=O)N[C@@H](CC(N)=O)C(=O)N[C@@H](CCCCNC(=O)[C@@H](N)CCCCNC(=O)CC[C@H](NC(=O)CC[C@H](NC(=O)CC[C@H](NC(=O)CC[C@H](NC(=O)CC[C@H](NC(=O)CC[C@H](NC(=O)CCCCCCCCCCCCCCCCCCC(=O)O)C(=O)O)C(=O)O)C(=O)O)C(=O)O)C(=O)O)C(=O)O)C(=O)NC(C)(C)C(=O)N[C@H](C(=O)N[C@@H](CCCNC(=N)N)C(=O)N[C@@H](CCC(N)=O)C(=O)N[C@@H](CCCNC(=N)N)C(=O)N[C@@H](Cc1ccc(O)cc1)C(N)=O)[C@@H](C)O [Compound 171, Y-Aib-E-G-T-F-T-S-D-Y-S-I-Aib-L-E-R-Q-A-Q-Aib-A-F-V-R-H-L-I-N-K(1,3)-Aib-T-R-Q-R-Y-NH2.C20DA-gGlu-gGlu-gGlu-gGlu-gGlu-gGlu-eLys(1,2)]

EC50, CreLuc reporter, 0.5% hP [4]: 150 nM
EC50, CreLuc reporter, 100% hP [4]: 690 nM
EC50, CreLuc reporter, 0.5% hP [5]: 0.2 nM
EC50, CreLuc reporter, 100% hP [5]: 3 nM
EC50, CreLuc reporter, 0.5% hP [6]: 0.6 nM
EC50, CreLuc reporter, 100% hP [6]: 3.3 nM
B1: Compound 68 (peptide)
peptide: YXEGTFTSDYSIXLEKQAQXAFVRHLIAKXTRQRY
modifications: Aib at 2, 13, 20, 30; Lys29 epsilon-amino acylated with C18DA-gGlu-gGlu-gGlu-gGlu-gGlu-gGlu-eLys; C-terminal amide
